Assays:
Factor 11 mRNA = Factor 11 mRNA in liver, FeCl3 induced venous thrombosis model vs Apixaban (Example 14); type: in vivo, BALB/c mice; settings: for % inhibition of Factor 11 mRNA in liver relative to PBS control: FeCl3 VT model
Procedure: (§1) ISIS 404071 and Apixaban were evaluated in the FeCl3 induced VT mouse model. […] Two days after receiving the last dose of ISIS 404071, mice were anesthetized with 150 mg/kg ketamine mixed with 10 mg/kg xylazine administered by intraperitoneal injection. […] Twenty minutes after receiving Apixaban, mice were anesthetized with 150 mg/kg ketamine mixed with 10 mg/kg xylazine administered by intraperitoneal injection. […] Two days after the last dose of PBS, mice in both groups were anesthetized with 150 mg/kg ketamine mixed with 10 mg/kg xylazine administered by intraperitoneal injection. Thrombus formation was induced with FeCl3 in all of the mice except the first control group.
(§2) In mice undergoing FeCl3 treatment, thrombus formation was induced by applying a piece of filter paper (2×4 mm) pre-saturated with 10% FeCl3 solution directly on the vena cava. After 3 minutes of exposure, the filter paper was removed. Thirty minutes after the filter paper application, a fixed length of the vein containing the thrombus was dissected out for platelet analysis. Liver was collected for RNA analysis.
RNA was extracted from liver tissue for real-time PCR analysis of Factor 11. Results are presented as percent inhibition of Factor 11, relative to PBS control.

platelet factor-4 (PF-4) [1] = assay: Thrombus formation by PF-4 real-time PCR, FeCl3 induced venous thrombosis model vs Apixaban (Example 14); type: in vivo, BALB/c mice; settings: for PF-4 in vena cava, percentage as compared to PBS controls (thrombus formation): + FeCl3
Procedure: as §1, §2
Real-time PCR quantification of platelet factor-4 (PF-4) was used to quantify platelets in the vena cava as a measure of thrombus formation. […] Results are presented as a percentage of PF-4 in ISIS 404071 or Apixaban treated mice, as compared to the two PBS-treated control groups.

[2] = parameters: species or system BALB/c mice; settings: mouse, in vivo
Procedure: ISIS 404071 and Apixaban were evaluated in the tail bleeding model.
The saline filled tubes were weighed before and after bleeding.

blood coagulation = assay: PT and aPTT, combination with Apixaban (Example 20); type: in vivo, BALB/c mice
Procedure: PT and aPTT were measured using PPP from mice treated with ISIS 404071 in combination with Apixaban. In the first cohort, ISIS 404071 was administered subcutaneously to BALB/c mice at a dosage of 25 mg/kg twice a week for 3 weeks. Plasma was collected from these mice 5 days after receiving the last dose of ISIS 404071. In the second cohort, Apixaban was administered subcutaneously to BALB/c mice at a dosage of 6 mg/kg twice daily for three days. Plasma was collected from these mice 20 minutes after receiving the last dose of Apixaban. In the third cohort, ISIS 404071 was administered subcutaneously to BALB/c mice at a dosage of 20 mg/kg twice a week for 3 weeks, and Apixaban was administered subcutaneously at a dosage of 6 mg/kg twice daily on the last three days of ISIS 404071 treatment. Plasma was collected from these mice 20 minutes after receiving the last dose of Apixaban. In a fourth cohort, PBS was administered subcutaneously twice a week for three weeks, as a control. Plasma was collected 5 days after the last dose of PBS.
PT and aPTT values provided in Table 32 are reported as International Normalized Ratio (INR) values. […] However, Apixaban and Apixaban combined with ISIS 404071 increased PT. Also shown in Table 32, Apixaban, ISIS 404071, and ISIS 404071 combined with Apixaban increase aPTT.

[3] = Tail bleeding assay, Apixaban in combination with PLAVIX (Example 28); type: in vivo, BALB/c mice
Procedure: Five groups of eight BALB/c mice were treated with 0 mg/kg, 6.25 mg/kg, 12.50 mg/kg, 25.00 mg/kg, or 50.00 mg/kg of PLAVIX. Mice were given two doses of PLAVIX on day one and one dose of PLAVIX on day two, two hours before bleeding. An additional five groups of eight BALB/c mice were treated with 0 mg/kg, 6.25 mg/kg, 12.50 mg/kg, 25.00 mg/kg, or 50.00 mg/kg of PLAVIX. Mice were given two doses of PLAVIX on day one and one dose of PLAVIX on day two, two hours before bleeding. […] Two hours after receiving their final treatment, mice were placed in a tail bleeding chamber.

[4] = apixaban added to aspirin and to aspirin plus clopidogrel, compared with aspirin alone and aspirin plus clopidogrel (Wong); cited from earlier work
platelet factor-4 (PF-4) [5] = assay: Thrombus formation by PF-4, FeCl3 induced VT model, combination with PLAVIX (Example 26); type: in vivo, BALB/c mice; settings: for PF-4 mRNA, percent as compared to the PBS + FeCl3 control (thrombus formation): ISIS 404071 0 mg/kg
Procedure: The combination of ISIS 404071 and PLAVIX was evaluated in the FeCl3 induced VT mouse model. Four groups of eight BALB/c mice, weighing approximately 25 g each, were treated with 6.25 mg/kg, 12.50 mg/kg, 25.00 mg/kg, or 50.00 mg/kg of PLAVIX. Mice were given two doses of PLAVIX on day one and one dose of PLAVIX on day two, two hours before surgery.
(§3) After the last dose of ISIS 404071, mice were treated with 6.25 mg/kg, 12.50 mg/kg, 25.00 mg/kg, or 50.00 mg/kg of PLAVIX. Two doses of PLAVIX were administered to the mice on day one and one dose of PLAVIX was administered on day two, two hours before surgery.
Two control groups of eight BALB/c mice, weighing approximately 25 g each, were not treated with ISIS 404071 or PLAVIX. […] Thrombus formation was induced with FeCl3 in all of the mice except the first […] control groups. All mice were anesthetized with 150 mg/kg of ketamine mixed with 10 mg/kg of xylazine administered by intraperitoneal injection.
After 3 minutes of exposure, the filter paper was removed. Thirty minutes after the filter paper application, a fixed length of the vein containing the thrombus was dissected out for platelet analysis.
Real-time PCR quantification of PF-4 was used to quantify platelets in the vena cava as a measure of thrombus formation. […] Therefore, the combination of anti-platelet therapy with Factor 11 ASO increases antithrombotic activity. Data is presented as percent of PF-4 mRNA as compared to the PBS+ FeCl3 control.

[6] = Tail bleeding assay, combination with PLAVIX (Example 27); type: in vivo, BALB/c mice; settings: ISIS 404071 0
Procedure: as §3, with “ISIS 404071 was administered subcutaneously at a dosage of 20 mg/kg twice a week for 3 weeks to 5 groups of eight BALB/c mice. After” for “After”, “with 0 mg/kg,” for “with”, “bleeding.” for “surgery.”
Two hours after receiving their final treatment, mice were placed in a tail bleeding chamber. […] The blood was collected for the course of 40 minutes.

[7] = Apixaban 0.5 mg/kg subcutaneously one time
[8] = Apixaban 2 mg/kg subcutaneously one time
[9] = Apixaban 5 mg/kg subcutaneously one time
[10] = Apixaban 10 mg/kg subcutaneously one time
[11] = Apixaban 20 mg/kg subcutaneously one time
[12] = BALB/c mice, ISIS 404071 25 or 20 mg/kg, Apixaban 6 mg/kg twice daily
[13] = ISIS 404071 alone 25 mg/kg s.c. twice a week for 3 weeks, Apixaban alone 6 mg/kg s.c. twice daily for three days, combination 20 mg/kg + 6 mg/kg

Question: What does the source list for `COc1ccc(-n2nc(C(N)=O)c3c2C(=O)N(c2ccc(N4CCCCC4=O)cc2)CC3)cc1` [Apixaban, reference compound]?
Answer: % inhibition of Factor 11 mRNA in liver relative to PBS control (Factor 11 mRNA; [7]): 5%; % inhibition of Factor 11 mRNA in liver relative to PBS control (Factor 11 mRNA; [8]): 8%; % inhibition of Factor 11 mRNA in liver relative to PBS control (Factor 11 mRNA; [9]): 12%; % inhibition of Factor 11 mRNA in liver relative to PBS control (Factor 11 mRNA; [10]): 2%; % inhibition of Factor 11 mRNA in liver relative to PBS control (Factor 11 mRNA; [11]): 0%; Factor 11 mRNA in liver vs PBS control (Factor 11 mRNA; FeCl3 induced VT model, ISIS 404071 1.25-40 mg/kg, Apixaban 0.5-5 mg/kg s.c. once): did not result in significant reduction of Factor 11; PF-4 in vena cava, percentage as compared to PBS controls (thrombus formation) (platelet factor-4 (PF-4) [1]; [7]): 67%; PF-4 in vena cava, percentage as compared to PBS controls (thrombus formation) (platelet factor-4 (PF-4) [1]; [8]): 46%; PF-4 in vena cava, percentage as compared to PBS controls (thrombus formation) (platelet factor-4 (PF-4) [1]; [9]): 15%; PF-4 in vena cava, percentage as compared to PBS controls (thrombus formation) (platelet factor-4 (PF-4) [1]; [10]): 5%; PF-4 in vena cava, percentage as compared to PBS controls (thrombus formation) (platelet factor-4 (PF-4) [1]; [11]): 26%; PF-4 in vena cava as measure of thrombus formation (platelet factor-4 (PF-4) [1]; FeCl3 induced VT model, vs PBS control): also resulted in reduction of PF-4; bleeding in tail bleeding assay [2]: did increase bleeding; PT (blood coagulation; [12]): increased PT; aPTT (blood coagulation; [12]): increase aPTT; PT INR (blood coagulation; [13]): 3.25 INR; aPTT INR (blood coagulation; [13]): 1.44 INR; bleeding risk in tail bleeding assay ([3]; Apixaban 0.5 mg/kg i.p. in combination with anti-platelet therapy (PLAVIX 0-50 mg/kg)): increases bleeding risk; Blood (tail bleeding, collected for 40 minutes) ([3]; Apixaban 0.5 mg/kg intraperitoneally 20 minutes before bleeding, PLAVIX 0): 0.004 g; bleeding time [4]: significant increase in bleeding time

Question: Which “PF-4 in vena cava as measure of thrombus formation” value (platelet factor-4 (PF-4) [5]; FeCl3 induced VT model, PLAVIX 6.25-50 mg/kg, ISIS 404071 20 mg/kg) does the source give for `COC(=O)[C@H](c1ccccc1Cl)N1CCc2sccc2C1` [PLAVIX, clopidogrel] here?
Answer: Its value is “resulted in a reduction of PF-4”.

Question: What about the “PF-4 mRNA, percent as compared to the PBS + FeCl3 control (thrombus formation)” value (“PF-4 mRNA, percent” for short) (platelet factor-4 (PF-4) [5]; PLAVIX 6.25 mg/kg) of the same compound?
Answer: The value was 59%.

Question: What about the “PF-4 mRNA, percent” value (platelet factor-4 (PF-4) [5]; PLAVIX 12.50 mg/kg) of the same compound?
Answer: Its value is 37%.

Question: What about the “PF-4 mRNA, percent” value (platelet factor-4 (PF-4) [5]; PLAVIX 50.00 mg/kg) of the same compound?
Answer: Its value is 30%.

Question: And the “PF-4 mRNA, percent” value (platelet factor-4 (PF-4) [5]; PLAVIX […])?
Answer: Its value is 30%.

Question: And the “Blood (tail bleeding, collected for 40 minutes)” value (“Blood” below) ([6]; PLAVIX 6.25 mg/kg)?
Answer: The value was 0.075 g.

Question: And the “Blood” value ([6]; PLAVIX 12.50 mg/kg)?
Answer: The value was 0.205 g.

Question: And the “Blood” value ([6]; PLAVIX 50.00 mg/kg)?
Answer: The value was 0.628 g.
